In patent publication US5756527A, “Imidazole derivatives useful as modulators of multi drug resistances” (Ontogen Corporation, priority 1997, dated 1998):

How the values were obtained:
CEM/VLB1000 [1] = experiment: Cytotoxicity potentiation (alamar blue) of vinblastine in multidrug-resistant cells; format: cell-based; settings: midpoint of minimum and maximum cytotoxicity induced by 3-5 μg/mL vinblastine and compound, 48 h
Method: Multidrug-resistant cell lines are easily obtainable for in vitro determination of drug sensitization by compounds of the present invention. In vitro potentiation of antineoplastic cytotoxicity by the imidazole derivatives of the present invention was measured in both CEM/VLB1000 and SK/VLB1000 cell lines. The multidrug resistant cell lines were obtained from Dr. Victor Ling, Ontario Cancer Institute, Toronto, Canada. The CEM/VLB 1000 cell line was maintained as a suspension in minimum essential medium supplemented with 10% fetal bovine serum in a humidied atmosphere of 95% air and 5% CO2 while the SK/VLB 1000 cell line was maintained as adherent cells using the identical medium conditions as the CEM cells. The CEM/VLB 1000 cells were seeded at a density of 5×10^4 cells/well in a 96 well microtiter plate while the SK/VLB 1000 cell line was seeded at a density of 2,500 cells/well after trypsinization. Vinblastine (5 μg/mL, for the CEM cells) or Taxol (3 μg/mL, for the SK cells) and compound (0.01 to 50 μM) were added directly to the wells. After an incubation of 48 hours in presence of drug, alamar blue (B. Page et al., Int. J. Oncol. 3: 473-476, 1993) was added (10 μL to the 200 μL cell suspension) for a period of 24 hours after which the fluorescence (excitation=530 nm, emission=590 nm) was read for each well using a "CytoFluor" microtiter fluorometer plate reader. This assay measures the effective concentration of compound necessary to enhance the cytotoxicity (EC50) of vinblastine in the MDR cell line.
^1 Values presented are the midpoint (EC50) of the minimum and
maximum cytotoxicity induced by 3-5 μg/mL vinblastine and the specific
compound of the present invention.

CEM/VLB1000 [2] = experiment: [3H]-vinblastine (VLB) accumulation assay; format: cell-based; settings: midpoint of minimum and maximum increase in accumulation of 3H-vinblastine (275 nM), 3 hours at 37° C.
Method: ^3 H-vinblastine accumulation was also measured in the CEM/VLB1000 cell line. Corning Easy-Wash 96 well plates were pretreated with PBS and 1% BSA for 60 minutes and then removed. CEM/VLB1000 cells were seeded at 2×10^5, 40 μL volume. Plates were incubated at 37° C. for 30-60 minutes prior to use. The reference reversing agent, verapamil, or the compound of the present invention was added to the well followed by addition of media containing ^3 H-vinblastine (final concentration=275nM). Plates were allowed to incubate for 3 hours at 37° C. Cells were harvested onto pretreated Wallace filtermats A (pretreated with 0.1% polyethyleneimine) using a TomTek harvester-96. After filtering, the filtermats were allowed to dry completely. Meltix B scintillant was then added to the filtermats. The filters were then placed in a 90° C. oven for approximately 3-5 minutes and then removed. Scintillant was allowed to solidify on the filtermats. Filtermats were then placed in sample bags and read on a Wallace BetaPlate scintillation counter. The effects of compounds of the present invention in the cytotoxicity potentiation assays and vinblastine (VLB) accumulation assay are given in the Table below:
^2 Values presented are the midpoint (EC50) of the minimum and
maximum increase in accumulation of ^3 Hvinblastine caused by the
specific compound of the present invention.

SMILES	EC50 (CEM/VLB1000 [1]) [µM]	EC50 (CEM/VLB1000 [2]) [µM]
CCCCN(CCCC)c1ccc(-c2[nH]c(-c3ccc(/C=C/C(=O)OC)cc3)nc2-c2ccc(NC)cc2)cc1 [Example 45, 2-[4-(trans-methylpropenoate)phenyl]-4-[(4-N,N-dibutylamino)phenyl]-5-[(4-N-methylamino)phenyl] imidazole]	1.9	10
CNc1ccc(-c2[nH]c(-c3ccc(/C=C/C(=O)OC)cc3)nc2-c2ccc(NC(C)C)cc2)cc1 [Example 47, 2-[4-(trans-methylpropenoate)phenyl]-4-[(4-N-i-propylamino)phenyl]-5-[(4-N-methylamino)phenyl] imidazole]	0.194	0.87
CNc1ccc(-c2[nH]c(-c3ccc(/C=C/C(=O)OC)cc3)nc2-c2ccc(N(C)C)cc2)cc1 [Example 42, 2-[4-(trans-methylpropenoate)phenyl]-4-[(4-N,N-dimethylamino)phenyl]-5-[(4-N-methylamino)phenyl] imidazole]	0.17	1.1
COC(=O)/C=C/c1ccc(-c2nc(-c3ccc(N(C)C)cc3)c(-c3ccc(N(C)C)cc3)[nH]2)s1 [Example 61]	0.217	1.8
COC(=O)/C=C/c1ccc(-c2nc(-c3ccc(N)cc3)c(-c3ccc(N(C)C)cc3)[nH]2)cc1 [Example 51, 2-[4-(trans-methylpropenoate)phenyl]-4-[(4-N,N-dimethylamino)phenyl]-5-(4-aminophenyl) imidazole]	0.48	2.6
CNc1ccc(-c2nc(-c3ccc(/C=C/C(=O)OC)cc3)[nH]c2-c2ccc(F)cc2)cc1 [Example 53, 2-[4-(trans-methylpropenoate)phenyl]-4-[(4-N-methylamino)phenyl]-5-(4-fluorophenyl) imidazole]	0.63	6.5
CCN(CC)c1ccc(-c2[nH]c(-c3ccc(/C=C/C(=O)OC)cc3)nc2-c2ccc(N)cc2)cc1 [Example 52, 2-[4-(trans-methylpropenoate)phenyl]-4-[(4-N,N-diethylamino)phenyl]-5-(4-aminophenyl) imidazole]	0.275	2.6
CNc1ccc(-c2[nH]c(-c3ccc(F)c(/C=C/C(=O)OC)c3)nc2-c2ccc(N(C)C)cc2)cc1 [Example 59, 2-[4-fluoro-3-(trans-methylpropenoate)phenyl]-4-[(4-N,N-dimethylamino)phenyl]-5-[(4-N-methylamino)phenyl] imidazole]	0.57	3.2
COC(=O)/C=C/c1ccc(OC)c(-c2nc(-c3ccc(N(C)C)cc3)c(-c3ccc(N(C)C)cc3)[nH]2)c1 [Example 56, 2-[2-methoxy-5-(trans-methylpropenoate)phenyl]-4,5-bis(4-N,N-dimethylaminophenyl) imidazole]	0.126	2.8
CC(C)OC(=O)/C=C/c1ccc(-c2nc(-c3ccc(N(C)C)cc3)c(-c3ccc(N(C)C)cc3)[nH]2)s1 [Example 65, 2-[3-(trans-i-propylpropenoate)thienyl]-4,5-bis[(4-N,N-dimethylamino)phenyl] imidazole]	0.211	4
COCCOc1ccc(-c2nc(-c3ccc(N(C)C)cc3)c(-c3ccc(N(C)C)cc3)[nH]2)cc1 [Example 71, 2-[4-(2-methoxyethoxy)phenyl]-4,5-bis[(4-N,N-dimethylamino)phenyl] imidazole]	0.17	–
CN(C)c1ccc(-c2nc(-c3ccc(/C=C/C(=O)OCCc4ccccc4)cc3)[nH]c2-c2ccc(N(C)C)cc2)cc1 [Example 68, 2-[4-(trans-phenethylpropenoate)phenyl]-4,5-bis[(4-N,N-dimethylamino)phenyl] imidazole]	1.2	> 30
COC(=O)/C=C/c1cc(-c2nc(-c3ccc(N(C)C)cc3)c(-c3ccc(N(C)C)cc3)[nH]2)ccc1OC [Example 55, 2-[4-methoxy-3-(trans-methylpropenoate)phenyl]-4,5-bis(4-N,N-dimethylaminophenyl) imidazole]	0.37	6
CCCCOc1ccc(-c2nc(-c3ccc(N(C)C)cc3)c(-c3ccc(N(C)C)cc3)[nH]2)cc1 [Example 70, 2-[4-butyloxyphenyl]-4,5-bis[(4-N,N-dimethylamino)phenyl] imidazole]	0.43	–
COC(=O)/C=C/c1cc(-c2nc(-c3ccc(N(C)C)cc3)c(-c3ccc(N(C)C)cc3)[nH]2)cc(OC)c1OC [Example 57, 2-[3,4-dimethoxy-5-(trans-methylpropenoate)phenyl]-4,5-bis(4-N,N-dimethylaminophenyl) imidazole]	0.453	2.8
COC(=O)/C=C/c1cccc(-c2nc(-c3ccc(N(C)C)cc3)c(-c3ccc(N(C)C)cc3)[nH]2)c1 [Example 54, 2-[3-(trans-methylpropenoate)phenyl]-4,5-bis(4-N,N-dimethylaminophenyl) imidazole]	0.256	4.8
CCN(CC)c1ccc(-c2nc(-c3ccc(/C=C/C(=O)OC)cc3)[nH]c2-c2ccc(N(C)C)cc2)cc1 [Example 50, 2-[4-(trans-methylpropenoate)phenyl]-4-[(4-N,N-diethylamino)phenyl]-5-[(4-N,N-dimethylamino)phenyl] imidazole]	0.225	4.9
CCOCCCc1ccc(-c2nc(-c3ccc(N(C)C)cc3)c(-c3ccc(N(C)C)cc3)[nH]2)cc1 [Example 69, 2-[4-(3-ethoxypropyl)phenyl]-4,5-bis[(4-N,N-dimethylamino)phenyl] imidazole]	0.21	–
COC(=O)/C=C/c1csc(-c2nc(-c3ccc(N(C)C)cc3)c(-c3ccc(N(C)C)cc3)[nH]2)c1 [Example 62, 2-[3-(trans-methylpropenoate)thienyl]-4,5-bis[(4-N,N-dimethylamino)phenyl] imidazole]	0.32	3
CNc1ccc(-c2nc(-c3ccc(/C=C/C(=O)OC)cc3)[nH]c2-c2ccc(NC)cc2)cc1 [Example 46, 2-[4-(trans-methylpropenoate)phenyl]-4,5-bis(4-N-methylaminophenyl) imidazole]	0.203	1.4
CC(C)OC(=O)/C=C/c1ccc(-c2nc(-c3ccc(N(C)C)cc3)c(-c3ccc(N(C)C)cc3)[nH]2)cc1 [Example 38, 2-[4-(trans-i-propylpropenoate)phenyl]-4,5-bis[(4-N,N-dimethylamino)phenyl]imidazole]	0.138	2.4
COC(=O)/C=C/c1ccc(-c2nc(-c3ccc(N(C)C)cc3)c(-c3ccc(N(C)C)cc3)[nH]2)c(F)c1 [Example 60, 2-[2-fluoro-4-(trans-methylpropenoate)phenyl]-4,5-bis(4-N,N-dimethylaminophenyl) imidazole]	0.613	3
CCN(CC)c1ccc(-c2nc(-c3ccc(/C=C/C(=O)OC(C)C)cc3)[nH]c2-c2ccc(NC)cc2)cc1 [Example 41, 2-[4-(trans-i-propylpropenoate)phenyl]-4-[(4-N,N-diethylamino)phenyl]-5-[(4-N-methylamino)phenyl] imidazole]	0.42	6
COCCCc1ccc(-c2nc(-c3ccc(N(C)C)cc3)c(-c3ccc(N(C)C)cc3)[nH]2)cc1 [Example 63, 2-[4-(3-methoxypropyl)phenyl]-4,5-bis[(4-N,N-dimethylamino)phenyl] imidazole]	0.205	1.1
CCCN(CCC)c1ccc(-c2[nH]c(-c3ccc(/C=C/C(=O)OC)cc3)nc2-c2ccc(NC)cc2)cc1 [Example 44, 2-[4-(trans-methylpropenoate)phenyl]-4-[(4-N,N-dipropylamino)phenyl]-5-[(4-N-methylamino)phenyl] imidazole]	0.165	1.4
COC(=O)/C=C/c1cc(-c2nc(-c3ccc(N(C)C)cc3)c(-c3ccc(N(C)C)cc3)[nH]2)ccc1F [Example 58, 2-[4-fluoro-3-(trans-methylpropenoate)phenyl]-4,5-bis(4-N,N-dimethylaminophenyl) imidazole]	0.134	2
COCCOc1ccc(-c2nc(-c3ccc(N(C)C)cc3)c(-c3ccc(N(C)C)cc3)[nH]2)cc1OC [Example 72, 2-[3-methoxy-4-(2-methoxyethoxy)-phenyl]-4,5-bis[(4-N,N-dimethylamino)phenyl] imidazole]	0.16	–
